According to paper PMC12040169 (PLOS Biology, 2025):

Test: in vitro
Conditions: human, hela cells, % viability

SMILES	viability at 28.5 h, 10 µM	viability at 28.5 h, 10 µM (bulk resorufin, single well)
CC(c1ccc(F)c(F)c1)N(C)C(=O)Cn1cnc2c(c1=O)CCC2 (centres unmarked) [CBK306291]	88.6%	–
CC(=O)Nc1cccc(NC(=O)CN(C)S(=O)(=O)c2ccc(F)cc2)c1 [CBK269951]	90.2%	–
c1ccc(C(Nc2cnccn2)C2CC2)cc1 (centres unmarked) [CBK304145]	106%	–
CCn1c(=O)c2c(cnn2C)c2ccccc21 [CBK017345]	81.3%	–
CC(=O)NCCN1CC[C@H]2CN(C(=O)c3cc(C)on3)CC[C@H]2CC1=O [CBK288785]	103%	–
CCCN1CC(NS(=O)(=O)c2ccc(OC)c3c2CCCC3)CC1=O (centres unmarked) [CBK307098]	79.7%	–
CN1C(=O)CC(Sc2ccccc2C(=O)O)C1=O (centres unmarked) [CBK287213]	89.5%	–
COc1cc2c(c(OC)c1OC)C(c1ccccc1C)CC(=O)N2 (centres unmarked) [CBK288205]	109%	–
Cc1cccc(N2C(=O)c3ccc(C(=O)c4ccc5c(c4)C(=O)N(c4cccc(C)n4)C5=O)cc3C2=O)n1 [CBK263069]	87.8%	–
O=C(O)c1cc(-c2ccccc2)nc(Nc2nc3ccccc3s2)n1 [CBK264665]	108%	–
COc1cc2[nH]c(=O)c(C(=O)NCCc3ccc(Cl)cc3)c(O)c2cc1OC [CBK159986]	91.3%	–
Clc1ccc2c(c1)NC(c1ccco1)N1CCN=C21 (centres unmarked) [CBK284479]	84.8%	–
CC(C)(C)OC(=O)NC1CCC(NCc2c[nH]c(-c3ccccc3)n2)CC1 (centres unmarked) [CBK056692]	80.9%	–
O=C(NC(Cc1cccs1)c1nccs1)C1CCOC1 (centres unmarked) [CBK285054]	80.6%	–
C[N+](C)(C)c1ccc(C(=O)O)cc1 [CBK260929B]	90%	–
O=C1NC(=S)NC(=O)C1=NNc1ccccc1C(=O)O [CBK262231]	–	99.6%
COc1ccc(-c2cc(C(=O)NCc3nc4ccccc4[nH]3)cnc2-c2ccccc2)cn1 [CBK037579]	99.6%	–
CCN(Cc1ccccc1)Cc1ccco1 [CBK261884]	111%	–
Cc1nc(Nc2cccc(C3CCCN3C(=O)COc3ccc(F)cc3)n2)sc1C (centres unmarked) [CBK286019]	87%	–
O=C(CCS(=O)(=O)c1ccccc1)Nc1ccc(N2CCNCC2)c2ccccc12 [CBK028408T]	92.6%	–
CN1CCCc2ccc(S(=O)(=O)NCCc3cn4ccccc4n3)cc21 [CBK306170]	82.8%	–
COc1ccc(OCCNC(=O)c2cc(-c3cccnc3)cnc2N2CCOCC2)cc1 [CBK076341]	96.2%	–
Cc1cc(C2CCCCCN2C(=O)c2c(C)noc2C)no1 (centres unmarked) [CBK284845]	85.1%	–

SMILES	viability at 28.5 h, 10 µM	viability at 28.5 h, 10 µM (bulk resorufin, single well)
Cc1ccc2oc([C@H]3CN(C(=O)C4CCN(C(=O)OC(C)(C)C)CC4)C[C@@H]3C(=O)O)cc2c1 [CBK001601]	90.7%	–
CC(=O)N1CCc2cc(C)ccc2C12CCN(CCCOc1ccccc1)CC2 [CBK081064]	92.4%	–
C#CCNC(=O)C1CCCN(c2nc3ccccc3n2CC)C1 (centres unmarked) [CBK282433]	90.5%	–
COc1ccc(-c2ccc(Nc3cccc(N(C)C)c3)nc2)cc1OC [CBK037606]	90%	–
CCNc1ncc(C(=O)N2CCOC(c3ccc(F)c(C)c3)C2)s1 (centres unmarked) [CBK306375]	95.4%	–
COc1cncc(C(NC(=O)Cc2cn3ccsc3n2)[C@H]2C[C@H](O)C2)c1 (some centres unmarked) [CBK306642]	97.2%	–
COc1ccc(CC(=O)N2CCCC2c2cccc(Cc3ccc(F)cc3)n2)cc1 (centres unmarked) [CBK286233]	89.1%	–
O=C(/C=C/c1c(Cl)cccc1Cl)Nc1ccc(S(=O)(=O)Nc2ncccn2)cc1 [CBK265490]	98.8%	–
O=C(NCCCc1ccc(Cl)cc1)c1cc2c([nH]c1=O)CCC2 [CBK281560]	89%	–
CCOC(=O)c1ccc(N2CCN(C(C)=O)CC2)c(NC(=O)c2cccc(F)c2)c1 [CBK270263]	93.8%	–
CCOC(=O)C(NS(=O)(=O)c1ccc(NC(C)=O)c(Cl)c1)C(=O)OCC [CBK043996]	96.2%	–
COc1cc(C2C3=C(CC(C)(C)CC3=O)Nc3ncnn32)ccc1OCC(=O)N1CCOCC1 (centres unmarked) [CBK268551]	102%	–
N#Cc1sc2c(c1NC(=O)C(F)(F)F)CCCC2 [CBK019233]	92.1%	–
O=C(NC(=S)Nc1ccc(C(=O)O)c(Cl)c1)c1ccc(-c2ccc(Cl)cc2)o1 [CBK265063]	105%	–
Cc1ccc2[nH]c(=O)c(CN(Cc3ccccc3)C(=O)NC3CCCCC3)cc2c1 [CBK068704]	84.5%	–
COCCNC(=O)c1sc2ccccc2c1C1CCN(Cc2ccc3ncccc3c2)C1 (centres unmarked) [CBK285680]	85.2%	–
CCNc1cc(-c2cccc(N)c2)ncn1 [CBK037731]	96.4%	–
O=c1c2ccccc2nc(SCc2cccc3nsnc23)n1-c1ccccc1 [CBK266076]	82.1%	–
CC(C)n1c(NCc2ccccc2)nc2c1c(=O)n(C)c(=O)n2C [CBK140094]	78.2%	–
COc1cc(CO)cc(I)c1OCC(=O)Nc1ccccc1 [CBK265950]	112%	–
CS(=O)(=O)Nc1nccnc1N1CCN(Cc2ccc(Cl)c(Cl)c2)CC1 [CBK084267]	98.7%	–
Cc1ccc(C)c(OCCNCc2ccco2)c1Cl [CBK269718C]	98.3%	–
COc1ccccc1-c1ccc(C(=O)N(C)CCN(C)C)c(NCC2CC2)n1 [CBK106269]	96.3%	–

SMILES	viability at 28.5 h, 10 µM	viability at 28.5 h, 10 µM (bulk resorufin, single well)
Cc1ccccc1Nc1nc(N)nc(CN2CCN(C)CC2)n1 [CBK304217]	89.9%	–
c1ccc(CCN2CCN(Cc3ncc[nH]3)CC2)cc1 [CBK138328]	120%	–
CC(C)c1ccc(SCCc2ccccn2)cc1 [CBK026575C]	88.8%	–
COCCN(Cc1cc2ccc(C)cc2nc1O)C(=O)c1cccs1 [CBK269324]	100%	–
Cc1c(C(=O)N2CCC(F)(CO)C2)nnn1-c1ccc2ncccc2c1 (centres unmarked) [CBK304483]	101%	–
CC(C)C(=O)N1CCC(n2nc(-c3cccs3)oc2=O)CC1 [CBK282422]	103%	–
Cc1ccc(C(=O)N2CCC(Cc3ccccc3)CC2)cn1 [CBK200179]	94.7%	–
CCC(c1ccc(F)cc1)N(C)C(=O)Cn1cccc(C(=O)NC2CCCCC2)c1=O (centres unmarked) [CBK286114]	96.4%	–
C#CCOc1cn([C@H]2C[C@@H](O)[C@@H](CO)O2)c(=O)[nH]c1=O [CBK201278]	91.7%	–
N=C(N)CCCOc1ccccc1-c1ccccc1 [CBK058057]	100%	–
C=C(C)CNC(=O)c1cc(Br)cnc1N(C)S(C)(=O)=O [CBK076498]	94.6%	–
O=C(CSc1nnc(-c2cccnc2)o1)Nc1ccccc1 [CBK287742]	82.6%	–
Cn1nccc1CN(Cc1ccc(F)cc1)Cc1cccnc1 [CBK282261]	101%	–
COc1ccc(NC(=O)C(OC)c2ccccc2)cc1Cl (centres unmarked) [CBK264098]	95.2%	–
COC(=O)[C@H]1CCc2ccccc2N1C(=O)c1ccco1 [CBK284259]	84.5%	–
NCc1ccc(CN(Cc2ccc(-c3ccccc3)cc2)C(=O)Nc2c(F)cccc2F)cc1 [CBK046115C]	104%	–
O=C1CC(c2ccccc2)CC(=O)N1c1ccc(N2CCOCC2)cc1 [CBK291191]	108%	–
CCC1C(=O)NCCN1C(=O)c1cc2cc(C)ccc2n1C (centres unmarked) [CBK281729]	110%	–
CC1CCN(CC(=O)Nc2sc3c(c2C(=O)NCc2ccccc2)CCCC3)CC1 [CBK268387]	107%	–
Cc1cc(C)c2sc(NC(=O)c3ccccc3)nc2c1 [CBK287614]	104%	–
Cc1cc(C2CCCCCN2S(=O)(=O)c2ccc3[nH]c(=O)[nH]c(=O)c3c2)no1 (centres unmarked) [CBK286404]	94.2%	–
CSc1ncc(C(=O)NC2CCCC2)c(NC2CCCC2)n1 [CBK291223]	91.3%	–
COc1cncc(-c2cnc3[nH]c(=O)n(C4CCCCC4)c3n2)c1 [CBK064230]	97.8%	–

SMILES	viability at 28.5 h, 10 µM	viability at 28.5 h, 10 µM (bulk resorufin, single well)
CC1=NN(c2ccc([N+](=O)[O-])cc2)C(=O)/C1=C\NCCc1ccc(S(N)(=O)=O)cc1 [CBK263006]	92.6%	–
Cc1nc2cc(C(=O)O)ccc2n1CCO [CBK260949]	106%	–
COc1ccc(Cn2c(C)nc3ccccc32)cc1 [CBK201156]	116%	–
c1ccc(COC(c2ccccc2)c2nc3ccccc3n2Cc2ccccc2)cc1 (centres unmarked) [CBK267311]	98.2%	–
Cc1cc(NC(=O)c2cc(C)[nH]n2)c2ccccc2n1 [CBK116260]	98.5%	–
CC(Oc1ccc2c(c1)OCO2)C(=O)NNC(=O)Nc1cccc(C(F)(F)F)c1 (centres unmarked) [CBK266922]	87.7%	–
CCOc1cccc(N2C(=O)/C(=C\c3ccc(-c4ccc(C(=O)O)c(Cl)c4)o3)C(=O)NC2=S)c1 [CBK263403]	–	92.1%
OCCn1c(COc2cccc3cccnc23)nc2ccccc21 [CBK269942]	79.5%	–
NC[C@H]1CC[C@H](C(=O)N2CCC(c3ccncc3)CC2)CC1 [CBK283332]	110%	–
Cc1cc(C)n(CC2CN(CC(=O)NCc3ccccn3)CCO2)n1 (centres unmarked) [CBK305344]	107%	–
Cc1noc(C)c1Cc1ccc(C(=O)Nc2nc3ccccc3n2C)o1 [CBK299839]	85.6%	–
CC1CCCN(C(=O)CCc2nc3sc4c(c3c(=O)[nH]2)CCCC4)C1 (centres unmarked) [CBK306073]	87.5%	–
O=C(O)CN(c1cccc([N+](=O)[O-])c1)S(=O)(=O)c1ccccc1 [CBK262684]	85.6%	–
COc1ccc(-c2cn(-c3ccc(OC(F)(F)F)cc3)nn2)cc1 [CBK113024]	110%	–
O=C(O)CSc1nnc(-c2ccc(F)cc2)o1 [CBK068115]	104%	–
CN(C(=O)NC1CCCc2c1cnn2CCO)c1ccccc1F (centres unmarked) [CBK304024]	109%	–
O=C(Nc1ccc2oc(-c3cccnc3)nc2c1)c1cccc(OCc2ccccc2)c1 [CBK263420]	94.4%	–
CCCc1oc(C(=O)O)cc1CN1CCCCC1 [CBK267973C]	99%	–
Cc1cc(Br)ccc1OCC(=O)O/N=C(\N)Cc1ccc([N+](=O)[O-])cc1 [CBK265095]	99.8%	–
O=C(Cc1ccsc1)N1CCC[C@@H]1Cn1c(=O)oc2ccccc21 [CBK284530]	91.2%	–
